# Data: ChEMBL document CHEMBL1201862, “PubChem BioAssay data set” (2004)
# The source made the active and inactive calls.
# What was measured:
# Vero [1] = assay: cells; format: functional; settings: Chlorocebus sabaeus
# Vero [2] = assay: cells; format: functional, cell-based; settings: Chlorocebus sabaeus
# [3] = growth suppression of PTEN-null colon cells, dose response, cell-based, HCT116 PTEN knockout (AID 1047); format: functional;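 further: HCT116 colon tumor cells with PTEN knocked out; cells exposed to compound for 60 hours before readout; potency for loss of cell viability measured by luminescence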
# [4] = Vero E6 cell cytotoxicity, dose response, cytotoxicity control for non-replicating M. tuberculosis project, secondary assay (AID 492998); format: functional, VeroE6; settings: Vero C1008
# [5] = growth suppression of beta-catenin-knockout colon cells, dose response, cell-based, HCT116, human colon tumor (AID 1045); format: functional;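 further: HCT116 colon tumor cells with beta catenin knocked out; cells exposed to compound for 60 hours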
# [6] = HepG2 cell cytotoxicity, dose response, cytotoxicity control for non-replicating M. tuberculosis project (AID 489018); format: functional; settings: Mycobacterium tuberculosis
# cells [7] = format: functional
# [8] = THP-1 cell cytotoxicity, dose response, cytotoxicity control for non-replicating M. tuberculosis project (AID 489025); format: functional
# [9] = cytotoxicity in MIN6 insulinoma cells, dose response, cytotoxicity control, cell-based, mouse insulinoma (AID 2122); format: functional;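 further: confirmatory high-throughput counterscreen run to flag cytotoxic compounds; mouse MIN-6 beta cells carrying an insulin promoter eGFP reporter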
# [10] = insulin promoter down-regulators in MIN6 cells, imaging, high-content screening, mouse beta cells (AID 1628); format: functional
# [11] = A Cell Based Secondary Assay To Explore Cytotoxicity of Compounds that Sensitize Mycobacterium Tuberculosis to Beta-Lactam Antibiotics.; format: functional
# [12] = target: Dual specificity tyrosine-phosphorylation-regulated kinase 1A (Rattus norvegicus, UniProt Q63470); format: biochemical, Homo sapiens
# [13] = HEp-2 cell cytotoxicity, dose response, cytotoxicity control for RSV inhibitor project, HTS (AID 2410); format: functional; settings: human respiratory syncytial virus
# [14] = target: Peroxisome proliferator-activated receptor gamma/Nuclear receptor coactivator 2 (Homo sapiens, UniProt P37231); assay: (§1) TR-FRET dose response biochemical High Throughput Screening assay for agonists of the steroid receptor coactivator 2 (SRC-2) recruitment by the peroxisome proliferator-activated receptor gamma (PPAR gamma): non-selective agonists. [Related pubchem assays: 1297, 1032 ]; format: functional
# [15] = target: Peroxisome proliferator-activated receptor gamma/Nuclear receptor coactivator 3 (Homo sapiens, UniProt P37231); assay: as §1, with “3 (SRC-3)” for “2 (SRC-2)”, “1301 (Confirmation screen.), 1048 (Primary screen.)]” for “1297, 1032 ]”; format: functional
# [16] = target: Peroxisome proliferator-activated receptor gamma/Nuclear receptor coactivator 1 (Homo sapiens, UniProt P37231); assay: as §1, with “1 (SRC-1)” for “2 (SRC-2)”, “assays (depositor defined):AID1300, AID1808, AID504735, AID631]” for “assays: 1297, 1032 ]”; format: protein assay
# Peroxisome proliferator-activated receptor gamma/Nuclear receptor coactivator 1, sequence (P37231 whole entry): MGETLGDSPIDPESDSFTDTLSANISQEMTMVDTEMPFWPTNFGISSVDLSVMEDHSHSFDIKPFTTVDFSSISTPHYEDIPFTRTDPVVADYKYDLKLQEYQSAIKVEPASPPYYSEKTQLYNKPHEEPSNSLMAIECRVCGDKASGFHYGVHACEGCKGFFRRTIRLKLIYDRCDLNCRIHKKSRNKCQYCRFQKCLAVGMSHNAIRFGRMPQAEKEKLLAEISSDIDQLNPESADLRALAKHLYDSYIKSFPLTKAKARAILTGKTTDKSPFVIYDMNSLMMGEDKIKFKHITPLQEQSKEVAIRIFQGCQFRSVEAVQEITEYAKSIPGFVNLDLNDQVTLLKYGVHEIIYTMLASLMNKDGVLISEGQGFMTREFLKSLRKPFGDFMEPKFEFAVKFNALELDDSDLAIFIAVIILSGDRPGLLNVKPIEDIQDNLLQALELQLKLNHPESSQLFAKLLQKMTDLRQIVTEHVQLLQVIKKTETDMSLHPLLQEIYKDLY
# Peroxisome proliferator-activated receptor gamma/Nuclear receptor coactivator 1, sequence (Q15788 whole entry, further chain): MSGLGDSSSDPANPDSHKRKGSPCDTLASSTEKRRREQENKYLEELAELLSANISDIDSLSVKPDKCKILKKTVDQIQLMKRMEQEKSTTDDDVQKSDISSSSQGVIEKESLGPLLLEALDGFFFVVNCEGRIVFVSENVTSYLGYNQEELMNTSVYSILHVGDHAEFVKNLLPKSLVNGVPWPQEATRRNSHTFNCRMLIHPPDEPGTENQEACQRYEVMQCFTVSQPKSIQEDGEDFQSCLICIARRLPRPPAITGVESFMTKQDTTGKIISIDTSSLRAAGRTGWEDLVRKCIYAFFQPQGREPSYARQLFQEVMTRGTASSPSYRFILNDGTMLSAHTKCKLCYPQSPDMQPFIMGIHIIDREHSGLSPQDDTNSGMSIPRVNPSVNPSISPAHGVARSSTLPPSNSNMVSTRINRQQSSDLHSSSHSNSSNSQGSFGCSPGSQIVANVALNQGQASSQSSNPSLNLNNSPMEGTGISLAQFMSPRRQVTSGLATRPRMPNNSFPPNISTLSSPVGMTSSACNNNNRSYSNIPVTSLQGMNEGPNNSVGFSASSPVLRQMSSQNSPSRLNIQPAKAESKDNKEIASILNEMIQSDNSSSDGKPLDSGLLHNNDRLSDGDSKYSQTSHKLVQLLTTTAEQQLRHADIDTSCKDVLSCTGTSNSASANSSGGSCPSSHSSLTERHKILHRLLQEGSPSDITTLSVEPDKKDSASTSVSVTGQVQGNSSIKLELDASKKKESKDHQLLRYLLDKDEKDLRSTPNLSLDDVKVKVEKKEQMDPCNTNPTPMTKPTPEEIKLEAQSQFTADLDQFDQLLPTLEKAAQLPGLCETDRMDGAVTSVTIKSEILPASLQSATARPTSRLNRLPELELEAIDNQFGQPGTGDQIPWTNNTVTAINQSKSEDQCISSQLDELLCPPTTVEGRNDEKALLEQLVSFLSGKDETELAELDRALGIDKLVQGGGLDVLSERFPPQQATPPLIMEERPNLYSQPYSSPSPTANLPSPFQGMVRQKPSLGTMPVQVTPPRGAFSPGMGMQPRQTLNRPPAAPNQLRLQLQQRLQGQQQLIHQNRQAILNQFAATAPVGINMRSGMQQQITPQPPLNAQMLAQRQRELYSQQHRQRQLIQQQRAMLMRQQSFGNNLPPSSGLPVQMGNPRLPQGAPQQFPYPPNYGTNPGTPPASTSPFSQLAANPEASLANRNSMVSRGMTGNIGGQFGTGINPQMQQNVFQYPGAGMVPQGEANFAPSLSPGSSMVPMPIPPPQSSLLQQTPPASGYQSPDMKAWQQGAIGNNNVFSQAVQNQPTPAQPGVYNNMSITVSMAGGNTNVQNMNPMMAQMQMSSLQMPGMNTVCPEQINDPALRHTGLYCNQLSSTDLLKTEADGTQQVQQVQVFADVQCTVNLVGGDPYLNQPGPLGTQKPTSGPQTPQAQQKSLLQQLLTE
# [17] = microbe, parasite or virus in culture; format: functional; settings: Mycobacterium tuberculosis
# [18] = target: T1, Short transient receptor potential channel 4 (Mus musculus, UniProt Q9QUQ5); assay: mouse TRPC4 channel activators, dose response, cell-based, HEK293 TRPC4/mu-opioid, Fluo-4 calcium (AID 434937); format: functional
# T1 sequence (Q9QUQ5 whole entry): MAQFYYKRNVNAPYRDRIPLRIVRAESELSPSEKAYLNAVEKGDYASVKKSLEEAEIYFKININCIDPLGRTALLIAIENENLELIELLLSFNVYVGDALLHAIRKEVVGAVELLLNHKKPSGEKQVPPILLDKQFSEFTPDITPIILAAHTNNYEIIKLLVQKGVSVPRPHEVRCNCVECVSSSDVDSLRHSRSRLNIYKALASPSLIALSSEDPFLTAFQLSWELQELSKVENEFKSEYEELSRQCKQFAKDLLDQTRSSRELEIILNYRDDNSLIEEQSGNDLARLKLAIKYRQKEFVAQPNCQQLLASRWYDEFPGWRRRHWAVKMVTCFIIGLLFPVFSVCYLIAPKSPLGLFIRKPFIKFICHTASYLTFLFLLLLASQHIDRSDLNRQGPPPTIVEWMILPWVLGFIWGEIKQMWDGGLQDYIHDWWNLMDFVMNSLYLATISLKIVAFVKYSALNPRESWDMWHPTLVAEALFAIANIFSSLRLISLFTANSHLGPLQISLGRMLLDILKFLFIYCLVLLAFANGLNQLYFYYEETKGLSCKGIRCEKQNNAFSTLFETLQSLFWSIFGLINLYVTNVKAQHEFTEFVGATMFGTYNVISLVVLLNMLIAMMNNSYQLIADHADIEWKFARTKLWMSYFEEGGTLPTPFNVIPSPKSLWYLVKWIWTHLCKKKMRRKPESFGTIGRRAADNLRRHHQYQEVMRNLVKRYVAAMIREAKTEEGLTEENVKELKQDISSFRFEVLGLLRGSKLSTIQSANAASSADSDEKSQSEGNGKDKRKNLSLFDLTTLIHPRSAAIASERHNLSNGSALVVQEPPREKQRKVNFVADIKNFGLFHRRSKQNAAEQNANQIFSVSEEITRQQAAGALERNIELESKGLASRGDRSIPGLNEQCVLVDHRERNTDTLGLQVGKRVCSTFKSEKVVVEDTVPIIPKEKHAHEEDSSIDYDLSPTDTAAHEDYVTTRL
# [19] = target: FAD-linked sulfhydryl oxidase ALR (Homo sapiens, UniProt P55789); assay: inhibitors of human ALR sulfhydryl oxidase, dose response, biochemical, H2O2 detection, luminescence, cherry-pick (AID 493248)
# FAD-linked sulfhydryl oxidase ALR, sequence (P55789 whole entry): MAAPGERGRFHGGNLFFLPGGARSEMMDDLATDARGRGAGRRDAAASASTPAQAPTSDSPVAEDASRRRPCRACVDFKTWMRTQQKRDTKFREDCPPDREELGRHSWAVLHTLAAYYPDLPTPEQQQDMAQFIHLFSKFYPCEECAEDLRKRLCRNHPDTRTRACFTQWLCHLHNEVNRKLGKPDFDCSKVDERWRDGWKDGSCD
# [20] = HepG2 cell cytotoxicity, dose response, cytotoxicity control, cherry-picked samples (AID 1159577); format: functional, cell-based
# [21] = P. falciparum Dd2 growth inhibitors, dose response, SYBR Green, cherry-picked samples (AID 1159567); format: functional, cell-based
# [22] = target: Voltage-gated inwardly rectifying potassium channel KCNH2 (Homo sapiens, UniProt Q12809); settings: Potency;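 further: confirmatory quantitative high-throughput screen measuring inhibition of hERG channel activity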
# Voltage-gated inwardly rectifying potassium channel KCNH2, sequence (Q12809 whole entry): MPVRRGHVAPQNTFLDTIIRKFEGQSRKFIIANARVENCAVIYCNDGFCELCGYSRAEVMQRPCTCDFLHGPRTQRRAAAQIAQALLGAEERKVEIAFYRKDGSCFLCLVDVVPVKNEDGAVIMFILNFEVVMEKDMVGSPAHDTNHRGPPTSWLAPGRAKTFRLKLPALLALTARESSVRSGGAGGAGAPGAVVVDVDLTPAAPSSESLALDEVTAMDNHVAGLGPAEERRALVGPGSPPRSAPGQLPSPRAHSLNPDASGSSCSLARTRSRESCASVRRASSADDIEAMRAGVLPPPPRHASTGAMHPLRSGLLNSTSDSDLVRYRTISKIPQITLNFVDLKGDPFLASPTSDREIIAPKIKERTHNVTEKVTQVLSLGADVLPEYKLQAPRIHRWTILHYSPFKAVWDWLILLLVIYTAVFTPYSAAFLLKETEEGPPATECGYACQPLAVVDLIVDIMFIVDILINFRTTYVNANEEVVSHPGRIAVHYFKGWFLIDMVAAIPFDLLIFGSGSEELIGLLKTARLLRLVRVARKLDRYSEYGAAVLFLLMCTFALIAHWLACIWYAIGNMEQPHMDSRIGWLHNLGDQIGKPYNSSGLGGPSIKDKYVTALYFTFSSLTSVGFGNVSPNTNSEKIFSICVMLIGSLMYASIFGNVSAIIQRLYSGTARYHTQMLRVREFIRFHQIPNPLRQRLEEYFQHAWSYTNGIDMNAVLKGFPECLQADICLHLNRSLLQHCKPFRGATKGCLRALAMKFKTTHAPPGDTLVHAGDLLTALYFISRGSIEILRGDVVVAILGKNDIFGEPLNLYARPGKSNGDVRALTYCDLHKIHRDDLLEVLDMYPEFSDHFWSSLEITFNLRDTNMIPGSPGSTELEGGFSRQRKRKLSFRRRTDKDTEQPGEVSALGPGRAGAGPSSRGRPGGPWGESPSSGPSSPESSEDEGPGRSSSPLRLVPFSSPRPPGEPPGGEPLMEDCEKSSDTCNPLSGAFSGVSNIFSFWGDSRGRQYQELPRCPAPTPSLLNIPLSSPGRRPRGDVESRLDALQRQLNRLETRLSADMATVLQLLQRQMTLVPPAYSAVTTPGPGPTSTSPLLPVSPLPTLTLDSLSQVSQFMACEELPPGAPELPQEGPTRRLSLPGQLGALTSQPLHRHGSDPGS
# Cytochrome P450 3A4 = Cytochrome P450 3A4 (Homo sapiens, UniProt P08684); settings: Potency;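 further: confirmatory qHTS run detecting inhibitors and substrates of CYP3A4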
# Cytochrome P450 3A4, sequence (P08684 whole entry): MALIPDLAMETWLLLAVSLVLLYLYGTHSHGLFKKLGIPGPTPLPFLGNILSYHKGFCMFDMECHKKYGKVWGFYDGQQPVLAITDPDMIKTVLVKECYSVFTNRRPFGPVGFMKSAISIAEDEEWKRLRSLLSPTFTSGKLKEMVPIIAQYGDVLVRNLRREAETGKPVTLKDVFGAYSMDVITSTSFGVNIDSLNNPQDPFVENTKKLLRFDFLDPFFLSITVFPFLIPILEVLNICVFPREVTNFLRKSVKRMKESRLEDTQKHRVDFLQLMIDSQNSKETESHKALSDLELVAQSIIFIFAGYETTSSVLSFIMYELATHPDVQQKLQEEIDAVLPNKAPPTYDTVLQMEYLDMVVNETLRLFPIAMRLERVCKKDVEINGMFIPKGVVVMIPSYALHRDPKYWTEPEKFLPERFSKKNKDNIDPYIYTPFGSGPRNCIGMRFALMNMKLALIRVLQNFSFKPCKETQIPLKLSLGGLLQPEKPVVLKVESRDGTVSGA
# [23] = cytotoxicity toward NIH3T3 fibroblasts, dose response, counter-screen, cell-based, ATP luminescence, mouse fibroblasts (AID 2010); format: functional;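 further: cells exposed to compound for about 90 hours before reading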
# [24] = inhibitors of intracellular T. cruzi replication, confirmation, NIH3T3 host cells, beta-gal luminescence (AID 2044); format: functional, cell-based;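 further: intracellular parasites grown in NIH/3T3 mouse fibroblasts as host cells; luminescent beta-galactosidase reporter signal from transgenic T. cruzi replicating inside host cells; inhibitors lower the luminescence signal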
# cells [25] = assay: cells
# BJ [26] = assay: cells; format: functional, cell-based; settings: Homo sapiens
# [27] = cytotoxicity toward DRD oncogenic fibroblasts, dose response, cell-based, non-viral oncogenic, luminescence (AID 1934); format: functional; settings: Homo sapiens
# BJ [28] = assay: cytotoxicity toward BJ-TERT-LT-ST fibroblasts, dose response, cell-based, RAS-independent, luminescence (AID 1935); format: functional; settings: Homo sapiens;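 further: BJ fibroblasts immortalized with TERT plus LT and ST oncogenes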
# BJ [29] = assay: cytotoxicity toward BJ-TERT fibroblasts, dose response, cell-based, RAS-independent, luminescence (AID 1933); format: functional; settings: Homo sapiens
structure (smiles),measurement,setting,value
O=C(c1ccc2c(c1)N(Cc1cccc(Cl)c1)C(=O)c1ccccc1S2(=O)=O)N1CCN(c2ccccn2)CC1,CC50,Vero [1],> 25 µM (active)
same,IC50,Vero [2],10.1 µM (active)
Clc1cccc2c1Sc1ccccc1CC2N1CCNCC1 (configuration not stated),EC50,[3],7.22 µM (active)
same,CC50,[4],9.77 µM (active)
same,EC50,[5],7.41 µM (active)
same,CC50,[6],7.37 µM (active)
same,IC50,cells [7],11.5 µM (active)
same,CC50,[8],8.49 µM (active)
CN1CCN(c2ccccc2NC(=O)c2cccc(OCc3ccccc3)c2)CC1,IC50,[9],4.17 µM (active)
same,IC50,[10],4.3 µM (active)
Cc1[nH]n(-c2ccc(Cl)cc2)c(=O)c1N=Nc1cccnc1,CC50,[4],12.2 µM (active)
same,CC50,[6],> 20 µM (active)
same,IC50,cells [7],1.78 µM (active)
same,CC50,[8],26.7 µM (active)
O=C(Nc1ccccc1Cl)c1csc(-c2cccnc2)n1,CC50,[11],> 40 µM (active)
same,AC50,[12],0.493 µM (active)
COc1ccccc1-c1cc(C(=O)N/N=C/c2cccs2)c2ccccc2n1,CC50,Vero [1],> 25 µM (active)
same,CC50,[13],24.7 µM (active)
same,IC50,Vero [2],18.9 µM (active)
O=C(CSc1ncnc2c1oc1ccccc12)OCc1ccccc1,EC50,[14],> 8.82 µM (not active)
same,EC50,[15],> 79.4 µM (not active)
same,EC50,[16],> 2.94 µM (inactive)
O=C(CCC1CCCC1)c1c(O)c2ccccc2oc1=O,CC50,[4],14.4 µM (active)
same,CC50,[17],15.4 µM (active)
same,EC50,[18],5.96 µM (active)
same,CC50,[6],> 20 µM (active)
same,IC50,cells [7],8.45 µM (active)
same,CC50,[8],23.5 µM (active)
CCCN1C(=O)c2ccccc2NC1c1ccc(OC)cc1O (configuration not stated),AC50,[19],12.2 µM (active)
same,IC50,Vero [2],24.1 µM (active)
C/C=C/c1ccccc1[C@H]1[C@@H](C#N)N(c2nc(CC)cs2)[C@@H]1CO,AC50,[20],21.4 µM (active)
same,AC50,[21],3.11 µM (active)
CN(C)c1ccc(C2(c3ccc(N(C)C)cc3)OC(=O)c3cc(N(C)C)ccc32)cc1,AC50,[22],0.251 µM (inconclusive)
same,AC50,Cytochrome P450 3A4,7.94 µM (inconclusive)
CCOc1ccc(/N=c2\cc(-c3ccc(OC)cc3)oc3ccccc23)cc1,EC50,[3],47.5 µM (active)
same,EC50,[5],60.6 µM (active)
same,CC50,[11],> 40 µM (active)
same,EC50,[23],> 60 µM (not active)
same,EC50,[24],2.64 µM (active)
Cc1cccc(-n2c(SCC(=O)Nc3ncc(Cl)cc3Cl)nc3ccccc32)c1,IC50,cells [25],1.26 µM (active)
same,EC50,BJ [26],50.5 µM (inconclusive)
same,CC50,Vero [1],> 25 µM (active)
same,CC50,[13],2.36 µM (active)
same,EC50,[27],94.2 µM (active)
same,EC50,BJ [28],> 150 µM (not active)
same,EC50,BJ [29],33.7 µM (active)
same,IC50,Vero [2],0.56 µM (active)
